System: E. coli cells
Test: Cell lysis
Assay type: cell-based
From the text: To facilitate the isolation of A22-resistant mutants a PBP 1B-defective (ponB^−) mutant strain, JST975, which forms a clear growth inhibitory zone upon A22 treatment, was selected as the parent strain in our screen. […] This correlates well with the increased sensitivity of mreB mutant strains to β-lactam antibiotics. In future screens for antibacterial agents derived from A22, it will be important to consider that the antibacterial effect of A22 on wild-type E. coli cells may be enhanced by simultaneous treatment with sub-lethal concentrations of β-lactam antibiotics.

## N=C(N)SCc1ccc(Cl)c(Cl)c1 [Compound 1, S-(3,4-dichlorobenzyl)isothiourea]
JST975 liquid culture
  Lysis of E. coli cells in the absence of PBP 1B: induces cell lysis
wild-type
  Lysis of wild-type E. coli cells: does not lyse

Reference: patent US7855228B2, “Antibiotics targeting MreB” (The Board of Trustees of the Leland Stamford Junior …, priority 2005, dated 2010)
